# From patent publication US4061540A, “Cholesterol oxidaze and process for preparing same” (Kikkoman Shoyu Co., Ltd., priority 1975, dated 1977)
# Columns and labels:
# cholesterol oxidase [1] = test: Inhibition of the enzyme; type: biochemical, Corynebacterium cholesterolicum
# cholesterol oxidase [2] = test: Action and substrate specificity: relative activity by hydrogen peroxide formation (peroxidase/4-aminoantipyrine/phenol, absorbance at 500 nm); type: biochemical, Corynebacterium cholesterolicum
# Protocol: All the above-mentioned values of relative activity (%) refer to the relative amounts of hydrogen peroxide formed from the substances oxidized by cholesterol oxidase, where the activity to cholesterol is taken as 100. The activity was measured by the following procedure.
# A substrate solution was prepared by mixing 50 microliter of a 0.38 micromolar solution of cholesterol in isopropanol with 3 milliliter of 0.1 M phosphate buffer (pH 7.0; it contains 0.82 millimoles of 4-aminoantipyrine, 14 millimoles of phenol, 0.17 millimoles of Carbowax 6000 and 0.3% Triton X-100). The resulting substrate solution was incubated for 5 minutes in a cell of light path, 10 mm, kept at 37° C.
# 50 microliter of an enzyme solution containing 2.5 U of peroxidase and 0.1 U of cholesterol oxidase was added. The increase in absorbance at 500 nm was measured at 37° C. The initial velocity was obtained from the increase in absorbance, from which the relative activity was computed. [Literature: Charles C. Allain, Lucy S. Poon, Cicely G. Chan, W. Richmond and Paul C. Fu, Clin. Chem. 20, 470 (1974)].
# cholesterol oxidase [3] = test: Km value by the ultraviolet absorption method; type: biochemical, Corynebacterium cholesterolicum
# Protocol: (§1) Enzymatic activity was measured by ultraviolet absorption method [Clin. Chem. 20, 470 (1974)]. A substrate solution was prepared by dissolving 5 ml of a 300 mg/dl solution of cholesterol in isopropanol into 300 ml of phosphate buffer (pH 7.0) containing 0.05% of Triton X-100. 20 microliter of enzyme solution was added to 3.0 ml of the substrate solution, and the resulting mixture was reacted at 37° C for 15 minutes. Increase in the absorption at 240 nm, assignable to cholest-4-en-3-one resulting from the reaction, was measured.
# [4] = Relative activities of various enzymes exhibited to pregnenolone and cholesterol; type: biochemical; settings: ratio of activity to pregnenolone over cholesterol; source of values for known enzymes not stated
# Source text: This enzyme oxidizes the hydroxyl group of steroids at […], and exerts no action upon other position of hydroxyl groups, such as 3α, 17β, etc., nor upon ester groups.
# [5] = Optimum pH and optimum temperature for the action of the enzyme; type: biochemical
# Protocol: The optimum pH is in the vicinity of 7.0 when the substrate is cholesterol.
# When the reaction time is 15 minutes, the optimum temperature is 40° C.
# as §1
# [6] = type: physicochemical; settings: treated at 30° C for 1 hour
# Protocol: It keeps stable in the pH range of 5-9 when treated at 30° C for 1 hour.
# [7] = Isoelectric point by isoelectric focusing; type: physicochemical; settings: pH, carrier ampholyte pH 3-10, 900 V, 50 hours, 4° C
# Protocol: The enzyme has an isoelectric point of pH 8.7, as measured by the method of isoelectric focusing. Thus, 10 mg of a purified enzyme was introduced into a 110 ml column packed with a carried ampholyte kept at pH 3-10 [LKB-Producter, commercial name of a product manufactured by AB Co.; cf. Biochem. Biophys. Acta, 133, 435 (1967)]. An electric current was passed at a voltage of 900 V for a period of 50 hours, while the column was cooled to 4° C.
# [8] = relative amounts of hydrogen peroxide formed, activity to cholesterol taken as 100, initial velocity, 37° C, pH 7.0
Compound,Relative activity (%) (cholesterol oxidase [2]; [8]),other results
Oc1cccc2cccnc12 [8-hydroxyquinoline],,Inhibition of the enzyme (in words) (cholesterol oxidase [1]): not inhibited
[Ag+] [Ag^+],,Inhibition of the enzyme (in words) (cholesterol oxidase [1]): inhibited
C[C@]12CC[C@@H](O)C[C@@H]1CC[C@@H]1[C@@H]2CC[C@]2(C)C(=O)CC[C@@H]12 [Androsterone],,Relative activity (%) (cholesterol oxidase [2]; pH 7): 0%
CC(=O)O[C@H]1CC[C@@]2(C)C(=CC[C@H]3[C@@H]4CC[C@H]([C@H](C)CCCC(C)C)[C@@]4(C)CC[C@@H]32)C1 [Cholesterol acetate],0,
CC(C)CCC[C@@H](C)[C@H]1CC[C@H]2[C@@H]3CC=C4C[C@@H](O)CC[C@]4(C)[C@H]3CC[C@]12C [Cholesterol],100,Km (cholesterol oxidase [3]): 54 µM
C[C@H](CCC(=O)O)[C@H]1CC[C@H]2[C@@H]3[C@H](O)C[C@@H]4C[C@H](O)CC[C@]4(C)[C@H]3C[C@H](O)[C@]12C [Cholic acid],0,
C[C@]12CC[C@H](O)CC1=CC[C@@H]1[C@@H]2CC[C@]2(C)C(=O)CC[C@@H]12 [Dehydro-epiandrosterone],57,
C[C@]12CC[C@H](O)C[C@H]1CC[C@@H]1[C@@H]2CC[C@]2(C)[C@@H](C3=CC(=O)OC3)CC[C@]12O [Digitoxigenin],0,
C[C@@H]1CC[C@@]2(OC1)O[C@H]1C[C@H]3[C@@H]4CC=C5C[C@@H](O)CC[C@]5(C)[C@H]4CC[C@]3(C)[C@H]1[C@@H]2C [Diosgenin],0,
O=C(O)CN(CCN(CC(=O)O)CC(=O)O)CC(=O)O [EDTA],,Inhibition of the enzyme (in words) (cholesterol oxidase [1]): not inhibited
CC(C)[C@@H](C)/C=C/[C@@H](C)[C@H]1CC[C@H]2C3=CC=C4C[C@@H](O)CC[C@]4(C)[C@H]3CC[C@]12C [Ergosterol],13,
[Hg+2] [Hg^2+],,Inhibition of the enzyme (in words) (cholesterol oxidase [1]): inhibited
CC(=O)[C@H]1CC[C@H]2[C@@H]3CC=C4C[C@@H](O)CC[C@]4(C)[C@H]3CC[C@]12C [Pregnenolone],416,Km (cholesterol oxidase [3]): 31 µM
CC[C@H](/C=C/[C@@H](C)[C@H]1CC[C@H]2[C@@H]3CC=C4C[C@@H](O)CC[C@]4(C)[C@H]3CC[C@]12C)C(C)C [Stigmasterol],17,
C[C@]12CC[C@H]3[C@@H](CCC4=CC(=O)CC[C@@]43C)[C@@H]1CC[C@@H]2O [Testosterone],0,
C=C1CC[C@H](O)C/C1=C/C=C1\CCC[C@]2(C)[C@@H]([C@H](C)CCCC(C)C)CC[C@@H]12 [Vitamin D3],0,
c1cnc2c(c1)ccc1cccnc12 [o-phenanthroline],,Inhibition of the enzyme (in words) (cholesterol oxidase [1]): not inhibited
O=C(O)c1cc[c]([Hg][Cl])cc1 [p-chloromercuribenzoate],,Inhibition of the enzyme (in words) (cholesterol oxidase [1]): inhibited
CC(C)CCC[C@@H](C)[C@H]1CC[C@H]2[C@@H]3CC[C@H]4C[C@@H](O)CC[C@]4(C)[C@H]3CC[C@]12C [β-Cholestanol],43,
C[C@]12CC[C@@H]3c4ccc(O)cc4CC[C@H]3[C@@H]1CC[C@@H]2O [β-Estradiol],0,
CC[C@H](CC[C@@H](C)[C@H]1CC[C@H]2[C@@H]3CC=C4C[C@@H](O)CC[C@]4(C)[C@H]3CC[C@]12C)C(C)C [β-Sitosterol],54,
cholesterol oxidase,,relative activities exhibited to pregnenolone and cholesterol [4]: 4.16; optimum temperature for the action ([5]; reaction time 15 minutes): 40 °C; Optimum pH ([5]; substrate is cholesterol): ~7.0; pH range in which it keeps stable [6]: 5-9; isoelectric point [7]: 8.7
